Laboratory results: PubChem BioAssay AID1259407 (Chemical Carcinogenesis Research Information System (CCRIS), 2018)
The source made the active and inactive calls. The rule behind the calls is not given here.

System: CCRIS mutagenicity, Ames/micronucleus/aberration tests
Test: CCRIS mutagenicity studies
[1] = Test System: AMES SALMONELLA TYPHIMURIUM, Strain/Indicator: TA98, Metabolic Activation: NONE, Method: STANDARD PLATE
[2] = Test System: AMES SALMONELLA TYPHIMURIUM, Strain/Indicator: TA100, Metabolic Activation: NONE, Method: STANDARD PLATE
[3] = Test System: AMES SALMONELLA TYPHIMURIUM, Strain/Indicator: TA98, Metabolic Activation: NONE, Method: PREINCUBATION
[4] = Test System: AMES SALMONELLA TYPHIMURIUM, Strain/Indicator: TA100, Metabolic Activation: NONE, Method: PREINCUBATION

With `C[C@]12CC[C@@H]3c4ccc(O)cc4CC[C@H]3[C@@H]1C[C@@H](O)C2=O` the mutagenic call (Test System: Ames Salmonella typhimurium, Strain/Indicator: TA98, Metabolic Activation: None, Method: Standard plate) was “inactive; negative”, the mutagenic call (Test System: Ames Salmonella typhimurium, Strain/Indicator: TA98, Metabolic Activation: Rat, liver, S-9, Method: Standard plate) was “inactive; negative” and the mutagenic call (Test System: Ames Salmonella typhimurium, Strain/Indicator: TA100, Metabolic Activation: None, Method: Standard plate) was “inactive; negative”. The mutagenic call (Test System: Ames Salmonella typhimurium, Strain/Indicator: TA100, Metabolic Activation: Rat, liver, S-9, Method: Standard plate) was “inactive; negative”.

With `Cc1cc(S(=O)(=O)O)c(N)cc1Cl` the mutagenic call (Test System: AMES SALMONELLA TYPHIMURIUM, Strain/Indicator: TA98, Metabolic Activation: HAMSTER, LIVER, S-9, AROCLOR 1254, Method: STANDARD PLATE) was “active; positive”, the mutagenic call [1] was “inactive; negative” and the mutagenic call (Test System: AMES SALMONELLA TYPHIMURIUM, Strain/Indicator: TA98, Metabolic Activation: RAT, LIVER, S-9, AROCLOR 1254, Method: STANDARD PLATE) was “active; positive”. For the same compound, the mutagenic call (Test System: AMES SALMONELLA TYPHIMURIUM, Strain/Indicator: TA100, Metabolic Activation: HAMSTER, LIVER, S-9, AROCLOR 1254, Method: STANDARD PLATE) was “inactive; negative”, the mutagenic call [2] was “inactive; negative” and the mutagenic call (Test System: AMES SALMONELLA TYPHIMURIUM, Strain/Indicator: TA100, Metabolic Activation: RAT, LIVER, S-9, AROCLOR 1254, Method: STANDARD PLATE) was “inactive; negative”. For the same compound, the mutagenic call (Test System: Ames Salmonella typhimurium, Strain/Indicator: TA98, Metabolic Activation: None, Method: Preincubation) was “inactive; negative”, the mutagenic call (Test System: Ames Salmonella typhimurium, Strain/Indicator: TA98, Metabolic Activation: Rat, Liver, S9, Sodium phenobarbital and 5,6-benzoflavone (10%), Method: Preincubation) was “inactive; negative” and the mutagenic call (Test System: Ames Salmonella typhimurium, Strain/Indicator: TA100, Metabolic Activation: None, Method: Preincubation) was “inactive; negative”. The mutagenic call (Test System: Ames Salmonella typhimurium, Strain/Indicator: TA100, Metabolic Activation: Rat, Liver, S9, Sodium phenobarbital and 5,6-benzoflavone (10%), Method: Preincubation) was “inactive; negative”, the mutagenic call (Test System: Ames Salmonella typhimurium, Strain/Indicator: TA1535, Metabolic Activation: None, Method: Preincubation) was “inactive; negative” and the mutagenic call (Test System: Ames Salmonella typhimurium, Strain/Indicator: TA1535, Metabolic Activation: Rat, Liver, S9, Sodium phenobarbital and 5,6-benzoflavone (10%), Method: Preincubation) was “inactive; negative”. For the same compound, the mutagenic call (Test System: Ames Salmonella typhimurium, Strain/Indicator: TA1537, Metabolic Activation: None, Method: Preincubation) was “inactive; negative”, the mutagenic call (Test System: Ames Salmonella typhimurium, Strain/Indicator: TA1537, Metabolic Activation: Rat, Liver, S9, Sodium phenobarbital and 5,6-benzoflavone (10%), Method: Preincubation) was “inactive; negative” and the mutagenic call (Test System: E. coli, Strain/Indicator: WP2uvrA/pKM101, Metabolic Activation: None, Method: Preincubation) was “inactive; negative”. For the same compound, the mutagenic call (Test System: E. coli, Strain/Indicator: WP2uvrA/pKM101, Metabolic Activation: Rat, Liver, S9, Sodium phenobarbital and 5,6-benzoflavone (10%), Method: Preincubation) was “inactive; negative”, the mutagenic call (Test System: MOUSE LYMPHOMA, Strain/Indicator: L5178Y (TK+/TK-), Metabolic Activation: NONE, Method: SUSPENSION/PLATE) was “inactive; negative. reevaluation of results: negative” and the mutagenic call (Test System: MOUSE LYMPHOMA, Strain/Indicator: L5178Y (TK+/TK-), Metabolic Activation: RAT, LIVER, S-9, AROCLOR 1254, Method: SUSPENSION/PLATE) was “inactive; negative. reevaluation of results: equivocal”. For the same compound, the mutagenic call (Test System: UDS RODENT HEPATOCYTES, Strain/Indicator: THY INCORP (NON-S-PHASE), Metabolic Activation: NONE, Method: AUTORADIOGRAPHY) was “inactive; negative”.

With `Nc1ccc(Cc2ccc(N)c(C(=O)O)c2)cc1C(=O)O` the mutagenic call [3] was “inactive; negative”, the mutagenic call (Test System: AMES SALMONELLA TYPHIMURIUM, Strain/Indicator: TA98, Metabolic Activation: RAT, LIVER, S-9, PCB, Method: PREINCUBATION) was “inactive; negative” and the mutagenic call [4] was “inactive; negative”. For the same compound, the mutagenic call (Test System: AMES SALMONELLA TYPHIMURIUM, Strain/Indicator: TA100, Metabolic Activation: RAT, LIVER, S-9, PCB, Method: PREINCUBATION) was “inactive; negative”.

In the case of `Oc1ccc(Cl)cc1Cc1cc(Cl)ccc1O`, the mutagenic call (Test System: AMES SALMONELLA TYPHIMURIUM, Strain/Indicator: TA98, Metabolic Activation: HAMSTER, LIVER, S-9, AROCLOR 1254 (30%), Method: PREINCUBATION) is reported as “inactive; negative”, the mutagenic call [3] is reported as “inactive; negative” and the mutagenic call (Test System: AMES SALMONELLA TYPHIMURIUM, Strain/Indicator: TA98, Metabolic Activation: RAT, LIVER, S-9, AROCLOR 1254 (30%), Method: PREINCUBATION) is reported as “inactive; negative”. The mutagenic call [4] was “inactive; negative” and the mutagenic call (Test System: AMES SALMONELLA TYPHIMURIUM, Strain/Indicator: TA1535, Metabolic Activation: HAMSTER, LIVER, S-9, AROCLOR 1254 (30%), Method: PREINCUBATION) was “inactive; negative”.

With `CC(=O)Nc1ccc2[nH]c3ccccc3c2c1[N+](=O)[O-]` the mutagenic call [1] was “active; positive”, the mutagenic call (Test System: AMES SALMONELLA TYPHIMURIUM, Strain/Indicator: TA98, Metabolic Activation: RAT, LIVER, S-9, PHENOBARBITAL, Method: STANDARD PLATE) was “active; positive” and the mutagenic call [2] was “inactive; negative”. For the same compound, the mutagenic call (Test System: AMES SALMONELLA TYPHIMURIUM, Strain/Indicator: TA100, Metabolic Activation: RAT, LIVER, S-9, PHENOBARBITAL, Method: STANDARD PLATE) was “inactive; negative”, the mutagenic call (Test System: AMES SALMONELLA TYPHIMURIUM, Strain/Indicator: TA1537, Metabolic Activation: NONE, Method: STANDARD PLATE) was “inactive; negative” and the mutagenic call (Test System: AMES SALMONELLA TYPHIMURIUM, Strain/Indicator: TA1537, Metabolic Activation: RAT, LIVER, S-9, PHENOBARBITAL, Method: STANDARD PLATE) was “inactive; negative”. The mutagenic call (Test System: AMES SALMONELLA TYPHIMURIUM, Strain/Indicator: TA1538, Metabolic Activation: NONE, Method: STANDARD PLATE) was “active; positive”, the mutagenic call (Test System: AMES SALMONELLA TYPHIMURIUM, Strain/Indicator: TA1538, Metabolic Activation: RAT, LIVER, S-9, PHENOBARBITAL, Method: STANDARD PLATE) was “active; positive” and the mutagenic call (Test System: AMES SALMONELLA TYPHIMURIUM, Strain/Indicator: TA1977, Metabolic Activation: NONE, Method: STANDARD PLATE) was “inactive; negative”. The mutagenic call (Test System: AMES SALMONELLA TYPHIMURIUM, Strain/Indicator: TA1977, Metabolic Activation: RAT, LIVER, S-9, PHENOBARBITAL, Method: STANDARD PLATE) was “inactive; negative”.

With `O=S(Cl)Cl` the mutagenic call (Test System: AMES SALMONELLA TYPHIMURIUM, Strain/Indicator: TA100, Metabolic Activation: HAMSTER, LIVER, S-9, AROCLOR 1254 (2.5-20%), Method: PREINCUBATION) was “active; positive”, the mutagenic call (Test System: AMES SALMONELLA TYPHIMURIUM, Strain/Indicator: TA102, Metabolic Activation: HAMSTER, LIVER, S-9, AROCLOR 1254, Method: PREINCUBATION) was “active; positive” and the mutagenic call (Test System: AMES SALMONELLA TYPHIMURIUM, Strain/Indicator: TA102, Metabolic Activation: RAT, LIVER, S-9, AROCLOR 1254, Method: PREINCUBATION) was “active; positive”. For the same compound, the mutagenic call (Test System: Mouse lymphoma, Strain/Indicator: L5178Y (tk+/tk-), Metabolic Activation: None, Method: Suspension/plate) was “active; equivocal (previous evaluation positive)” and the mutagenic call (Test System: Mouse lymphoma, Strain/Indicator: L5178Y (tk+/tk-), Metabolic Activation: Rat, Liver, S-9, Aroclor 1254, Method: Suspension/plate) was “inactive; inconclusive (previous evaluation negative)”.
